Assay results as given in patent US20230374148A1, “BINDING MOLECULES THAT MULTIMERISE CD45” (UCB BIOPHARMA SRL, priority 2020, published 2023).

Assays:
Format in all cases: cell-based, human
[1] = test system: M2 macrophages; assay: Caspase-3/7 induction, IncuCyte, M2; conditions: over 6 days, BYbe 250-2 nM, Camptothecin, Staurosporine 5 μM
Procedure: (§1) Human PBMC derived from blood leukocyte platelet-apheresis cones (NHSBT Oxford) were banked as frozen aliquots. Prior to an assay being performed, 2 vials of frozen cells, each containing 5×10^7 cells in 1 ml, were thawed in a 37° C. water bath and then added to 50 ml complete media (RPMI 1640+2 mM GlutaMAX+1% Pen/Strep, all previous supplied by Invitrogen, +10% Fetal Bovine Serum (FBS), Sigma Aldrich). Cells were spun (500 g, 5 min, at RT) and re-suspended in 30 ml complete media to wash and spun again. Cells were resuspended in 20 ml MACS buffer (PBS, pH 7.2, 0.5% bovine serum albumin (BSA), and 2 mM EDTA, Sigma Aldrich) and counted on a ChemoMetec NucleoCounter NC-3000 to determine concentration and viability. PBMCs from one donor (UCB-Cones 802) was used in this assay. Monocyte isolation was performed using the Pan Monocyte Isolation Kit (Miltenyi Biotec, cat no. 130-096-537) and LS columns (Miltenyi Biotec, cat no 130-042-401) according to manufacturer's instructions. 100 μl of cells were removed and stored on ice to check monocyte purity post isolation. Isolated cells were stained with BV421 mouse anti-human CD14 (BD Biosciences, cat no. 563743) to check for purity of monocytes using FACS. M-CSF (Sigma Aldrich, cat no. SRP3110) and GM-CSF (R&D Systems, cat no. 215-GM/CF) were prepared at 100 μg/ml. Cells were prepared in M1 media (complete media+50 ng/ml GM-CSF) or M2 media (complete media+50 ng/ml M-CSF) at a concentration of 2.5×10^5 cells/ml. 200 μl cells were plated into two Corning 96 well Black polystyrene microplates (Sigma Aldrich) and incubated at 37° C., 5% CO2. Following a 3-day incubation at 37° C., 5% CO2, the plate was spun (500 g, 5 min, RT), buffer was aspirated, the cells were washed once with PBS and then resuspended in 200 μL of M1 media or M2 media. […] The caspase dye was measured with the green laser (350 ms) and the cytotox dye was measured with a red laser (650 ms). The green dye signal was analysed using Incucyte® Zoom2016B. […]

[2] = test system: M2 macrophages; assay: Macrophage viability, CellTiter-Glo, M2; conditions: 24 hr, BYbe 250-2 nM, Camptothecin, Staurosporine 5 μM
Procedure: (§2) Human PBMC derived from blood leukocyte platelet-apheresis cones (NHSBT Oxford) were banked as frozen aliquots. Prior to an assay being performed, 2 vials of frozen cells, each containing 5×10^7 cells in 1 ml, were thawed in a 37° C. water bath and then added to 50 ml complete media (RPMI 1640+2 mM GlutaMAX+1% Pen/Strep, all previous supplied by Invitrogen, +10% Fetal Bovine Serum (FBS), Sigma Aldrich). Cells were spun (500 g, 5 min, at RT) and re-suspended in 30 ml complete media to wash and spun again. Cells were resuspended in 20 ml MACS buffer (PBS, pH 7.2, 0.5% bovine serum albumin (BSA), and 2 mM EDTA, Sigma Aldrich) and counted on a ChemoMetec NucleoCounter NC-3000 to determine concentration and viability. PBMCs from one donor (UCB-Cones 802) was used in this assay.
(§3) Monocyte isolation was performed using the Pan Monocyte Isolation Kit (Miltenyi Biotec, cat no. 130-096-537) and LS columns (Miltenyi Biotec, cat no 130-042-401) according to manufacturer's instructions. 100 μl of cells were removed and stored on ice to check monocyte purity post isolation. […]
(§4) One microplate was incubated for a further 24 hours in 37° C. incubator with 5% CO2 before being used to assess cell viability with CellTiter-Glo®. […] The plate was then read on the BMG Labtech PHERAstar FSX microplate reader using the CellTiter-Glo program.

[3] = test system: M1 macrophages; assay: Caspase-3/7 induction, IncuCyte, M1; conditions: over 6 days, BYbe 250-2 nM, Camptothecin, Staurosporine 5 μM
Procedure: as §1

[4] = test system: M1 macrophages; assay: Macrophage viability, CellTiter-Glo, M1; conditions: 24 hr, BYbe 250-2 nM, Camptothecin, Staurosporine 5 μM
Procedure: as §2, §3, §4

SMILES	levels of Caspase-3/7 [1]	cell viability (CellTiter-Glo) [2]	levels of Caspase-3/7 [3]	cell viability (CellTiter-Glo) [4]
CN[C@@H]1C[C@H]2O[C@@](C)([C@@H]1OC)n1c3ccccc3c3c4c(c5c6ccccc6n2c5c31)C(=O)NC4 [Staurosporine]	very low	little or no viable cells detected	very low	little or no viable cells detected
CC[C@@]1(O)C(=O)OCc2c1cc1n(c2=O)Cc2cc3ccccc3nc2-1 [Camptothecin]	significant levels	reduced the viability	significant levels	reduced the viability
